The target of series [1] is T1, Calcium/calmodulin-dependent protein kinase type IV (Homo sapiens) (UniProt Q16566).
T1 sequence (whole entry): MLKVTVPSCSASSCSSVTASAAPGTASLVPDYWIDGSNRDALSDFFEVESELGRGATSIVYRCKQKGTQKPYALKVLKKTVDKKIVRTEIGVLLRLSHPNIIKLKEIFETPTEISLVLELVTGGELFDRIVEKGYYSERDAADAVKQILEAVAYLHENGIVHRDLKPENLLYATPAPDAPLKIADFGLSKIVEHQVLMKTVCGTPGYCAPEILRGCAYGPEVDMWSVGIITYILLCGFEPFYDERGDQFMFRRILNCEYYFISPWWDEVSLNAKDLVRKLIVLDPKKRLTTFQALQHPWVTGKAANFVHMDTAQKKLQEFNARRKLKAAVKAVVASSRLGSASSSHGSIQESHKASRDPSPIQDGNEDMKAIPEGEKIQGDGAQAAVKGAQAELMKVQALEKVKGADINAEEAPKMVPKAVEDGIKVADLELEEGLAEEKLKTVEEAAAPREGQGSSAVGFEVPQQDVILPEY
The series can be described thus: Inhibition of human CAMK4 assessed as residual activity at 1 uM using JUN as substrate in presence of 33P-ATP by ProQinase assay relative to control.

For series [2], the target named is Homeodomain-interacting protein kinase 3 (Homo sapiens) (UniProt Q9H422). The series can be described thus: Inhibition of human HIPK3 assessed as residual activity at 1 uM using RBER-CHKtide as substrate in presence of 33P-ATP by ProQinase assay relative to control.
Series [3] deals with Epidermal growth factor receptor (Homo sapiens), P00533 [UNDEFINED MUTATION]. The series can be described thus: Inhibition of human EGFR d746-750 mutant assessed as residual activity at 1 uM using PolyEY as substrate in presence of 33P-ATP by ProQinase assay relative to control.
Series [4] deals with Dual specificity mitogen-activated protein kinase kinase 6 (Homo sapiens), P52564 [S207D,T211D]. The series can be described thus: Inhibition of human MKK6 S207D/T211D double mutant assessed as residual activity at 1 uM using p38-alpha KA as substrate in presence of 33P-ATP by ProQinase assay relative to control.
In series [5] the target is Serine/threonine-protein kinase MARK2 (Homo sapiens) (UniProt Q7KZI7). The series can be described thus: Inhibition of human MARK2 assessed as residual activity at 1 uM using RBER-CHKtide as substrate in presence of 33P-ATP by ProQinase assay relative to control.
The target in series [6] is Calcium/calmodulin-dependent protein kinase type 1D (Homo sapiens) (UniProt Q8IU85). Nature of the series: Inhibition of human CAMK1D assessed as residual activity at 1 uM using RBER-CHKtide as substrate in presence of 33P-ATP by ProQinase assay relative to control.
Series [7] addresses Mitogen-activated protein kinase 1 (Homo sapiens) (UniProt P28482). Nature of the series: Inhibition of ERK2 (unknown origin) assessed as remaining activity at 1 uM by Kinome scan method relative to control.
Series [8] concerns the target CYP1A (Homo sapiens, UniProt P04798+P05177). The series can be described thus: Inhibition of CYP1A (unknown origin) at 10 uM relative to control. The series is classed as ADME, protein assay.
The target of series [9] is MAP kinase-activated protein kinase 3 (Homo sapiens) (UniProt Q16644). The series can be described thus: Inhibition of human MAPKAPK3 assessed as residual activity at 1 uM using bio-4xCHKT as substrate in presence of 33P-ATP by ProQinase assay relative to control.
The target in series [10] is Calcium/calmodulin-dependent protein kinase kinase 2 (Homo sapiens) (UniProt Q96RR4). Nature of the series: Inhibition of CAMKK2 (unknown origin) assessed as remaining activity at 1 uM by Kinome scan method relative to control.
The target in series [11] is Cytoplasmic tyrosine-protein kinase BMX (Homo sapiens) (UniProt P51813). Nature of the series: Inhibition of human BMX assessed as residual activity at 1 uM using polyEy as substrate in presence of 33P-ATP by ProQinase assay relative to control.
In series [12] the target is Ribosomal protein S6 kinase alpha-1 (Homo sapiens) (UniProt Q15418). Nature of the series: Inhibition of N-terminal kinase domain RPS6KA1 (unknown origin) assessed as remaining activity at 1 uM by Kinome scan method relative to control.
Series [13] can be described thus: Anti-inflammatory activity against human derived medium respond PBMC cells assessed as inhibition in stimulated TARC chemokine release incubated for 2 hrs in the presence of LPS/SEB/aCD28 by Luminex based sandwich immunoassay. The series is classed as functional, cell-based.
Series [14] deals with High affinity nerve growth factor receptor (Homo sapiens) (UniProt P04629). Nature of the series: Inhibition of TRKA (unknown origin) assessed as remaining activity at 1 uM by Kinome scan method relative to control.
Series [15] concerns the target Cyclin-dependent kinase 5/CDK5 activator 1 (Homo sapiens) (UniProt Q00535+Q15078). Nature of the series: Inhibition of human CDK5/p35NCK assessed as residual activity at 1 uM using RBER-CHKtide as substrate in presence of 33P-ATP by ProQinase assay relative to control. The series is classed as protein-complex assay.
Series [16] deals with Serine/threonine-protein kinase SIK3 (Homo sapiens) (UniProt Q9Y2K2). The series can be described thus: Inhibition of QSK (unknown origin) assessed as remaining activity at 1 uM by Kinome scan method relative to control.
Series [17] relates to Hepatocyte growth factor receptor (Homo sapiens), P08581 [Y1235D]. Nature of the series: Inhibition of human MET Y1235D mutant assessed as residual activity at 1 uM using PolyEY as substrate in presence of 33P-ATP by ProQinase assay relative to control.
In series [18] the target is Protein-tyrosine kinase 6 (Homo sapiens) (UniProt Q13882). The series can be described thus: Inhibition of human BRK assessed as residual activity at 1 uM using PolyEY as substrate in presence of 33P-ATP by ProQinase assay relative to control.
Series [19] deals with Ribosomal protein S6 kinase alpha-2 (Homo sapiens) (UniProt Q15349). The series can be described thus: Inhibition of N-terminal kinase domain RPS6KA2 (unknown origin) assessed as remaining activity at 1 uM by Kinome scan method relative to control.
Series [20] has as its target MAP kinase-interacting serine/threonine-protein kinase 2 (Homo sapiens) (UniProt Q9HBH9). Nature of the series: Inhibition of human MKNK2 assessed as residual activity at 1 uM using RB-S6P as substrate in presence of 33P-ATP by ProQinase assay relative to control.
Series [21] has as its target Tyrosine-protein kinase Mer (Homo sapiens) (UniProt Q12866). Nature of the series: Inhibition of human MERTK assessed as residual activity at 1 uM using polyEY as substrate in presence of 33P-ATP by ProQinase assay relative to control.
In series [22] the target is Interleukin-1 receptor-associated kinase 4 (Homo sapiens) (UniProt Q9NWZ3). The series can be described thus: Inhibition of human IRAK4 assessed as residual activity at 1 uM using RB-CTF as substrate in presence of 33P-ATP by ProQinase assay relative to control.

The term inhibition denotes the relative decrease from the control value, in per cent.

Dual specificity mitogen-activated protein kinase kinase 6 (Homo sapiens), P52564 [S207D,T211D], sequence (P52564 whole entry S207D/T211D): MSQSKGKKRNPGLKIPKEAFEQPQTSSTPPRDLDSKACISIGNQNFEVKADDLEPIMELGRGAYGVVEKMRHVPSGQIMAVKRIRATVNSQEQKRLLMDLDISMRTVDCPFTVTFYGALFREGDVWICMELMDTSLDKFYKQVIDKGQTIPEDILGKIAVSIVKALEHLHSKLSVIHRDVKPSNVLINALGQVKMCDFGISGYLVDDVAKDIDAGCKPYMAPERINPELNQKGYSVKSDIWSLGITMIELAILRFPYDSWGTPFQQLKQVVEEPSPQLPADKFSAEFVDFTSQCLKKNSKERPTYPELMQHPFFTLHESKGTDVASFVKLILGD
Calcium/calmodulin-dependent protein kinase type 1D (Homo sapiens), sequence (Q8IU85 whole entry, looked up): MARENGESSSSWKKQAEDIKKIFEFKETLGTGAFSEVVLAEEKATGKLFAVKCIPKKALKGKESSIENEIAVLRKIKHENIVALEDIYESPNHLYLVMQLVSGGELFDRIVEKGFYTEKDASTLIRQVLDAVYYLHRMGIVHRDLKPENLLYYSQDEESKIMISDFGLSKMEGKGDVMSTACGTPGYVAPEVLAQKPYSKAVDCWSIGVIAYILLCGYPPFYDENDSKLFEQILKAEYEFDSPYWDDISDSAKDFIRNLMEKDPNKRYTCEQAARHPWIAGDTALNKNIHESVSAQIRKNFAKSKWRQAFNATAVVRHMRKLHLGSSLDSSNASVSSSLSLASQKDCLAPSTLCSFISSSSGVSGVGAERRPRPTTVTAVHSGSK
Cyclin-dependent kinase 5/CDK5 activator 1 (Homo sapiens), sequence (Q00535 whole entry): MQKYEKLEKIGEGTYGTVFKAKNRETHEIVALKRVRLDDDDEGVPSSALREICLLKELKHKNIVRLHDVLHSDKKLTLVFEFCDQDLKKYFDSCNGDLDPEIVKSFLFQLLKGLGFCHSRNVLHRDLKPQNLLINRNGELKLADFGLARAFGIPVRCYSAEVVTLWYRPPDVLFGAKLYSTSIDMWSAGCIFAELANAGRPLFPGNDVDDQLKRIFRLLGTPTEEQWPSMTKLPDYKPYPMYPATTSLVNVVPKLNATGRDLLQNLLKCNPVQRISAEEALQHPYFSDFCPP
Cyclin-dependent kinase 5/CDK5 activator 1 (Homo sapiens), sequence (Q15078 99-307 partner limits assumed): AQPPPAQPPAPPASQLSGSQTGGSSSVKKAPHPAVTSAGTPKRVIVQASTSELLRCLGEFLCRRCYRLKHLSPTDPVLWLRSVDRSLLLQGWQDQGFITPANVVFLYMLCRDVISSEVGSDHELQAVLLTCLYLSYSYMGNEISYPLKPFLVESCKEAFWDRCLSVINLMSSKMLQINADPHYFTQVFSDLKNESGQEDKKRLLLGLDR
Epidermal growth factor receptor (Homo sapiens), P00533 [UNDEFINED MUTATION], sequence (P00533 whole entry, looked up, stated change not applied): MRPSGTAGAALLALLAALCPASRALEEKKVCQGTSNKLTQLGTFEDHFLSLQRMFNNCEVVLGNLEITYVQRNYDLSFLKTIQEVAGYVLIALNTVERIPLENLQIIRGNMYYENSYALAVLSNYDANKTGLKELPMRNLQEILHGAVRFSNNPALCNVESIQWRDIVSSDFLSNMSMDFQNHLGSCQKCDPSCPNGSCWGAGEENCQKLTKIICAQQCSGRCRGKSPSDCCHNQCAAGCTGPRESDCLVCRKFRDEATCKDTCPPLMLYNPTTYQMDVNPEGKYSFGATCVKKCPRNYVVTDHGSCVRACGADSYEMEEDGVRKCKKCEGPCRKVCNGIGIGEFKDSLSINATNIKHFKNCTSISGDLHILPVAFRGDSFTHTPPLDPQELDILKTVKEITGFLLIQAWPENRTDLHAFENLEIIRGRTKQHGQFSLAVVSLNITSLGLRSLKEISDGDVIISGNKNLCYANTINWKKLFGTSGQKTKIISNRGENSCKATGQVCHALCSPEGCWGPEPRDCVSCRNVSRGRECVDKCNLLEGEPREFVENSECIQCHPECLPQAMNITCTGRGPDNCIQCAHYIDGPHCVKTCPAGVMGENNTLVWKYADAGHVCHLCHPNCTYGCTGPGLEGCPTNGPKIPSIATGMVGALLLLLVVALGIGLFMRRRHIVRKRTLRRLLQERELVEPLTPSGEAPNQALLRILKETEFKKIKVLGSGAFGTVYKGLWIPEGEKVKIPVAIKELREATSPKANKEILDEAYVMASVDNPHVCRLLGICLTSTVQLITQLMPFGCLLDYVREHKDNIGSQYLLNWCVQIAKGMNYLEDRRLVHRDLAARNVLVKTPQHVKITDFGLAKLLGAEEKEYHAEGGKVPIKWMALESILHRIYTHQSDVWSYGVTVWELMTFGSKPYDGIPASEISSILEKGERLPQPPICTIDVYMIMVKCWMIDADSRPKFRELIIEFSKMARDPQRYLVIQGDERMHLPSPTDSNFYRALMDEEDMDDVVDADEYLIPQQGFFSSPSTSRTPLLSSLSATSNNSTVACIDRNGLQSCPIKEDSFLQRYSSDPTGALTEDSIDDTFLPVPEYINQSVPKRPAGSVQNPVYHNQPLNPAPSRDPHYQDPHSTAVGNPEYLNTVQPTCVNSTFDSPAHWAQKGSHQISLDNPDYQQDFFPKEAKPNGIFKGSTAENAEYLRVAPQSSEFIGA
Serine/threonine-protein kinase SIK3 (Homo sapiens), sequence (Q9Y2K2 whole entry, looked up): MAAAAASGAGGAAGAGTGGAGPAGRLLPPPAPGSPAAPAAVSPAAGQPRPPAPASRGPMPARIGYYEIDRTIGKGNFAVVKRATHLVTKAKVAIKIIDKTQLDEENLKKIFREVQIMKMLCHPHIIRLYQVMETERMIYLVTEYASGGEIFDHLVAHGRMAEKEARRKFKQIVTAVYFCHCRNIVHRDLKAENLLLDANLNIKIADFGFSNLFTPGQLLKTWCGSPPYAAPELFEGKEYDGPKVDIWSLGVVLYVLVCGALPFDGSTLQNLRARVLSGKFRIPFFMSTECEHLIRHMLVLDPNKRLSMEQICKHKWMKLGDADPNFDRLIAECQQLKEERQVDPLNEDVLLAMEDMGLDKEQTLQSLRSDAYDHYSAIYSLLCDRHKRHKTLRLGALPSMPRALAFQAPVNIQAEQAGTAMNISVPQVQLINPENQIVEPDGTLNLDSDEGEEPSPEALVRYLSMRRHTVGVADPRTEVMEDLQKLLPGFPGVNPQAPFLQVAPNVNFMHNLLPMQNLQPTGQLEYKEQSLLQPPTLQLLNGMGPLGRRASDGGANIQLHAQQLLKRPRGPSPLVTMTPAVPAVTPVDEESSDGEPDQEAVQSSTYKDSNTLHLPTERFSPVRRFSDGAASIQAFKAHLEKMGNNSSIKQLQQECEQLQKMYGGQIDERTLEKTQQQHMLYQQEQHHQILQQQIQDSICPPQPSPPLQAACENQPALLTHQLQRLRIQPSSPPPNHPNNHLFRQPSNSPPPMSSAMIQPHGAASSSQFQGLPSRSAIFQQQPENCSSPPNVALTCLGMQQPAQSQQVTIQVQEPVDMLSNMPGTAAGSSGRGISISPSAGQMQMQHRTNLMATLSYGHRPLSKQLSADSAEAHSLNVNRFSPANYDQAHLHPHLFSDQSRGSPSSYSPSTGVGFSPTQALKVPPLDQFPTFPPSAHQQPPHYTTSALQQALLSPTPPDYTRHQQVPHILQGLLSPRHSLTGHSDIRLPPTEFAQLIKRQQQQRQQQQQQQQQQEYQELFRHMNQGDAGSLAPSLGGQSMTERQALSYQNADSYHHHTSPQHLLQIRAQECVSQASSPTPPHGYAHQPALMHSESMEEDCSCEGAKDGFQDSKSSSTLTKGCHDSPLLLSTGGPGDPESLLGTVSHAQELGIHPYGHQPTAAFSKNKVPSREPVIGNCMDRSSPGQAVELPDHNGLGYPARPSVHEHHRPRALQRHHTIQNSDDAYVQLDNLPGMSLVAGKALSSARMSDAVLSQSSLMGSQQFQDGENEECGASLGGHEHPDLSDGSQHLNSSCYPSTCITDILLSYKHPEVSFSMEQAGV
Homeodomain-interacting protein kinase 3 (Homo sapiens), sequence (Q9H422 whole entry, looked up): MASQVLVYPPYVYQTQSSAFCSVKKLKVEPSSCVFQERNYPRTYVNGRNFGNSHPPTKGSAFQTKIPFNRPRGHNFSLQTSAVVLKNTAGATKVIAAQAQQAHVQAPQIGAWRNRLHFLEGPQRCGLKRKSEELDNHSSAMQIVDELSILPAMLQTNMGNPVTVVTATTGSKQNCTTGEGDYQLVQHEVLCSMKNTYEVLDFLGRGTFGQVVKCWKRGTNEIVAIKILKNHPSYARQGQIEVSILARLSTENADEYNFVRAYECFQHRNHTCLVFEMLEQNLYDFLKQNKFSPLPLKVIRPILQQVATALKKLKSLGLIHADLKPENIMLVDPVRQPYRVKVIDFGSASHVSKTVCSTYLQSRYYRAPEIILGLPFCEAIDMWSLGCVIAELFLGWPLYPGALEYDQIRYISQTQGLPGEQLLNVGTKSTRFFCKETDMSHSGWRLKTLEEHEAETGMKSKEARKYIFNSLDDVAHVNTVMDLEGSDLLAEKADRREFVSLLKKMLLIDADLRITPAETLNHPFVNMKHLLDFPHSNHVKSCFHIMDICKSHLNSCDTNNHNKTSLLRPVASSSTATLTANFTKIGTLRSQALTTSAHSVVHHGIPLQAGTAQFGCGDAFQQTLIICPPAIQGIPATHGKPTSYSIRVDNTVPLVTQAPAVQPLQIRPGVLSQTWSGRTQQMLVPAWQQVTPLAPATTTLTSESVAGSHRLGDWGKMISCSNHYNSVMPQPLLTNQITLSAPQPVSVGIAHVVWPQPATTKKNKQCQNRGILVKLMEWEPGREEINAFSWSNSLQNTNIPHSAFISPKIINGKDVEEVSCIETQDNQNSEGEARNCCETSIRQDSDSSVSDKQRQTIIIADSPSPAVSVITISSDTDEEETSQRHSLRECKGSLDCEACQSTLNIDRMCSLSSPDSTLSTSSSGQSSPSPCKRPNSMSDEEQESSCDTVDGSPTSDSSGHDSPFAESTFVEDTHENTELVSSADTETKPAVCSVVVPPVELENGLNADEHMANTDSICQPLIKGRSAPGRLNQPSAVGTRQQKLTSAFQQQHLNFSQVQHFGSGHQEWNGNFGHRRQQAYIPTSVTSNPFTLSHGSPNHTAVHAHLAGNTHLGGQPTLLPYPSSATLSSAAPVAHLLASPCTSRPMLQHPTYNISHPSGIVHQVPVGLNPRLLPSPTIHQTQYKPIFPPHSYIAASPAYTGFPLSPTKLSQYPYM

Take `O=C1c2ccc(Nc3ccc(F)cc3F)cc2CCc2ccc(OC[C@H](O)CO)cc21` [Skepinone-L]: the Activity in [1] was found to be 111%; in series [2] it was 91%; in series [3], 100%; in [4], 120%; in [5], 105%; in series [6], 106%. The Activity turned out to be 100% in series [7]; 95% in series [9]; 98% in series [10]; 108% in series [11]; 100% in series [12]; 88% in series [14]. Further, the Activity was found to be 90% in series [15]; 100% in [16]; 114% in series [17]; 84% in series [18]; 100% in series [19]; 96% in series [20]. The values for the Activity in [21] and in [22] were 98% and 104%, respectively. In addition, in series [8], the inhibition at 10 µM is -19%. Besides, the IC50 entry in [13] was “Not Active”.

The values above are taken from ChEMBL document CHEMBL5696441 (Nat Chem Biol, 2011).
